Like-named read-outs stand apart in the source and are kept apart here.
Biological target: T1, SGK3 (Homo sapiens, UniProt Q96BR1)
T1 sequence (Q96BR1 1-496): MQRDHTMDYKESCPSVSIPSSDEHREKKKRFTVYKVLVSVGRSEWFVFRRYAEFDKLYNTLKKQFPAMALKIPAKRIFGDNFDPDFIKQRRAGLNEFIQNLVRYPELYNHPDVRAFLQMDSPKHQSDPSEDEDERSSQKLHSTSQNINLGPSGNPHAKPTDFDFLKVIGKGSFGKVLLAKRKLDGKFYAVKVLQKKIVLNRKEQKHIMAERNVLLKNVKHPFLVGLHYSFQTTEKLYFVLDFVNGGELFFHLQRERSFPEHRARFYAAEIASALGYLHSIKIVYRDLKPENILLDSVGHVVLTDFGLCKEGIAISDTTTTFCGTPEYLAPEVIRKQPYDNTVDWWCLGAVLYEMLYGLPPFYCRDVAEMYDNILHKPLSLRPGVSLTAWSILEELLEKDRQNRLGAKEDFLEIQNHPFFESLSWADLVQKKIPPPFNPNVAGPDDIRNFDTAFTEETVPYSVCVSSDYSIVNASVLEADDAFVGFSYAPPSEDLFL
Test: Off-chip Mobility Shift Assay (MSA method), kinase inhibition
Assay type: biochemical
Settings: for inhibition at 0.1 µM: read-out: inhibition (%) SGK3
Protocol: For compound k-1:B-1, inhibitory activity evaluation (calculation of 50% inhibitory concentration (IC50)) was performed on 8 kinds of kinases (CGK2, LATS2, MSK1, p70S6K, PKACα, PKACβ, SGK2, SGK3). The activity was measured using the Off-chip Mobility Shift Assay (MSA method) described below. The compound was added such that the test concentration of k-1:B-1 was in 10 steps from the final concentration of 10 μM to 0.3 nM.
As an analysis method of the data, the mean signal of the control well containing all reaction components was set to 0% inhibition, the mean signal without enzyme addition was set to 100% inhibition, and the inhibition rate was calculated from the mean signal of 2 wells of each test substance test. The IC50 value was obtained by approximating a plot based on the test substance concentration and inhibition rate to a 4 parameter logistics curve by using the Excel Solver add-in and by the non-linear least squares method.
(§1) 5 μL of k-1:B-1 solution at 4-fold concentration, 5 μL of substrate/ATP/metal solution at 4-fold concentration, and 10 μL of kinase solution at 2-fold concentration, each prepared with assay buffer (20 mM HEPES, 0.01% Triton X-100, 2 mM DTT, pH 7.5), were mixed in the wells of a polypropylene 384-well plate and reacted at room temperature for 1 or 5 hr. Successively, 70 μL of Termination Buffer (QuickScout Screening Assist MSA; Carna Biosciences) was added to discontinue the reaction. Then, the substrate peptide and the phosphorylated peptide in the reaction solution were separated and quantified by the LabChip system (Perkin Elmer). The kinase reaction was evaluated by the resultant product ratio (P/(P+S)) calculated from the substrate peptide peak height (S) and the phosphorylated peptide peak height (P).
For compounds k-1:H-7, k-1:H-1, k-1:D-1, k-1:J-1, and k-1:B-1, inhibitory rate at 100 nM was calculated on 8 kinds of kinases (CGK2, LATS2, MSK1, p70S6K, PKACα, PKACβ, SGK2, SGK3). The activity was measured using the MSA method. As an analysis method of the data, the mean signal of the control well containing all reaction components was set to 0% inhibition, the mean signal without enzyme addition was set to 100% inhibition, and the inhibition rate was calculated from the mean signal of 2 wells of each test substance test.
as §1, with “a compound” for “k-1:B-1”

IC50 (MSA method, 10 steps from 10 μM to 0.3 nM)	inhibition at 0.1 µM (at 100 nM, MSA method)	Structure (SMILES)	inhibition at 0.1 µM
–	73.7%	CCC(=NNC(=O)CNc1ccccc1)c1ccc(O)c(C)c1O [k-1:H-1]	–
–	44.4%	CCC(=NNC(=O)C(CC)Nc1ccccc1)c1ccc(O)c(C)c1O (stereo not drawn) [k-1:H-7]	–

Further lines, the molecule ahead of its results:

Structure (SMILES)	IC50 (MSA method, 10 steps from 10 μM to 0.3 nM)	inhibition at 0.1 µM (at 100 nM, MSA method)	inhibition at 0.1 µM
CC/C(=N\NC(=O)C(C)Nc1ccccc1)c1ccc(O)c(C)c1O (stereo not drawn) [k-1:B-1]	63.3 nM	65.9%	–
CC/C(=N\NC(=O)CNc1cccc(O)c1)c1ccc(O)c(C)c1O [k-1:D-1]	–	–	93.6%
CC/C(=N\NC(=O)NCc1cccc(O)c1)c1ccc(O)c(C)c1O [k-1:J-1]	–	–	82.5%
